Assay results as given in PubChem BioAssay AID220 (DTP/NCI, 2004).
“And” between values parts separate entries of the source, which are not always exact repeats. Equal values may be shown once. Results filed as inconclusive are left out.

Tested on: CD8F1 mice, subcutaneous mammary adenocarcinoma, T/C%
Assay: NCI In Vivo Anticancer Drug Screen. Data for tumor model Mammary Adenocarcinoma CD8F1 (subcutaneous) in CD8F1
Conditions: higher = larger tumour
Procedure, shortened: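 Antitumor activity is assessed in transplantable-tumor mice by comparing the treated group with a vehicle-treated control group. Survival or tumor size serves as the measure, reported as T divided by C.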

[1] = endpoint: median tumor weight change, dose: 125.0 mg/kg/injection, schedule: Q01DX001 (ip), vehicle: saline with Tween-80
[2] = endpoint: median tumor weight change, dose: 250.0 mg/kg/injection, schedule: Q01DX001 (ip), vehicle: saline with Tween-80
[3] = endpoint: median tumor weight change, dose: 62.5 mg/kg/injection, schedule: Q01DX001 (ip), vehicle: saline with Tween-80
[4] = endpoint: median tumor weight (est.), dose: 6.25 mg/kg/injection, schedule: Q07DX005 (ip), vehicle: Klucel (hydroxypropylcellulose) (HPC)
[5] = endpoint: median tumor weight (est.), dose: 12.5 mg/kg/injection, schedule: Q07DX005 (ip), vehicle: Klucel (hydroxypropylcellulose) (HPC)
[6] = endpoint: median tumor weight (est.), dose: 25.0 mg/kg/injection, schedule: Q07DX005 (ip), vehicle: Klucel (hydroxypropylcellulose) (HPC)
[7] = endpoint: median tumor weight (est.), dose: 50.0 mg/kg/injection, schedule: Q07DX005 (ip), vehicle: Klucel (hydroxypropylcellulose) (HPC)
[8] = endpoint: median tumor weight (est.), dose: 100.0 mg/kg/injection, schedule: Q07DX005 (ip), vehicle: Klucel (hydroxypropylcellulose) (HPC)
[9] = endpoint: median tumor weight change, dose: 125.0 mg/kg/injection, schedule: Q01DX001 (ip), vehicle: Klucel (hydroxypropylcellulose) (HPC)
[10] = endpoint: median tumor weight change, dose: 250.0 mg/kg/injection, schedule: Q01DX001 (ip), vehicle: Klucel (hydroxypropylcellulose) (HPC)

## O=CC(NC(=O)N(CCCl)N=O)C(O)C(O)C(O)CO (centres undefined)
endpoint: mean tumor weight, dose: 1.5 mg/kg/injection, schedule: Q02DX008 (ip), vehicle: saline
  T/C: 58 % of control
endpoint: mean tumor weight, dose: 3.0 mg/kg/injection, schedule: Q02DX008 (ip), vehicle: saline
  T/C: 24 % of control
endpoint: mean tumor weight, dose: 6.0 mg/kg/injection, schedule: Q02DX008 (ip), vehicle: saline
  T/C: 31 % of control
endpoint: median tumor weight (est.), dose: 1.5 mg/kg/injection, schedule: Q07DX005 (ip), vehicle: saline
  T/C: 175 % of control
endpoint: median tumor weight (est.), dose: 3.0 mg/kg/injection, schedule: Q07DX005 (ip), vehicle: saline
  T/C: 107 % of control
endpoint: median tumor weight (est.), dose: 6.0 mg/kg/injection, schedule: Q07DX005 (ip), vehicle: saline
  T/C: 53 % of control
endpoint: median tumor weight (est.), dose: 12.0 mg/kg/injection, schedule: Q07DX005 (ip), vehicle: saline
  T/C: 14 % of control
endpoint: median tumor weight (est.), dose: 24.0 mg/kg/injection, schedule: Q07DX005 (ip), vehicle: saline
  T/C: 13 % of control

## O=C(O)C1CC1.[Ag]
endpoint: median tumor weight (est.), dose: 6.25 mg/kg/injection, schedule: Q07DX005 (ip), vehicle: distilled water + Tween-80
  T/C: 63 % of control
endpoint: median tumor weight (est.), dose: 12.5 mg/kg/injection, schedule: Q07DX005 (ip), vehicle: distilled water + Tween-80
  T/C: 88 % of control

## C/C=C/C=C1/OC(C)=C(C(C)=O)C1=O
[1]
  T/C: 94 % of control and 104 % of control
[2]
  T/C: 64 % of control

## COc1ccc2c(ccc3oc([N+](=O)[O-])cc32)c1
[3]
  T/C: 77 % of control
[1]
  T/C: 63 % of control
[2]
  T/C: 76 % of control
endpoint: median tumor weight change, dose: 500.0 mg/kg/injection, schedule: Q01DX001 (ip), vehicle: saline with Tween-80
  T/C: 86 % of control
endpoint: median tumor weight change, dose: 1000.0 mg/kg/injection, schedule: Q01DX001 (ip), vehicle: saline with Tween-80
  T/C: 56 % of control

## ClC1=C(Cl)C(Cl)=C(Cl)C1=Cc1ccccc1
endpoint: median tumor weight change, dose: 31.0 mg/kg/injection, schedule: Q01DX001 (ip), vehicle: saline with Tween-80
  T/C: 100 % of control
endpoint: median tumor weight change, dose: 62.0 mg/kg/injection, schedule: Q01DX001 (ip), vehicle: saline with Tween-80
  T/C: 63 % of control
endpoint: median tumor weight change, dose: 150.0 mg/kg/injection, schedule: Q01DX001 (ip), vehicle: saline with Tween-80
  T/C: 33 % of control
endpoint: median tumor weight change, dose: 300.0 mg/kg/injection, schedule: Q01DX001 (ip), vehicle: saline with Tween-80
  T/C: 73 % of control

## COc1ccc2c(c1)CCC(c1ccccc1)=C2c1ccc(OCCN2CCCC2)cc1
[4]
  T/C: 119 % of control
[5]
  T/C: 99 % of control and 103 % of control
[6]
  T/C: 92 % of control and 111 % of control
[7]
  T/C: 77 % of control and 80 % of control
[8]
  T/C: 75 % of control and 95 % of control

## NC(CCl)=NCC12CC3CC(CC(C3)C1)C2
endpoint: median tumor weight (est.), dose: 3.12 mg/kg/injection, schedule: Q07DX005 (ip), vehicle: Klucel (hydroxypropylcellulose) (HPC)
  T/C: 114 % of control
[5]
  T/C: 104 % of control and 119 % of control
[6]
  T/C: 90 % of control
[7]
  T/C: 39 % of control and 51 % of control

## C[C@]12CC[C@@H]3c4ccc(O)cc4CC[C@H]3[C@@H]1CC[C@@H]2O
[4]
  T/C: 97 % of control
[6]
  T/C: 27 % of control

## COc1ccc(Cl)[n+]([O-])n1
[9]
  T/C: 79 % of control

## OCC(O)C(O)C(O)C(O)CO (centres undefined)
endpoint: median tumor weight change, dose: 75.0 mg/kg/injection, schedule: Q01DX001 (ip), vehicle: saline
  T/C: 20 % of control
endpoint: median tumor weight change, dose: 150.0 mg/kg/injection, schedule: Q01DX001 (ip), vehicle: saline
  T/C: 40 % of control
endpoint: median tumor weight change, dose: 300.0 mg/kg/injection, schedule: Q01DX001 (ip), vehicle: saline
  T/C: 39 % of control
endpoint: median tumor weight change, dose: 600.0 mg/kg/injection, schedule: Q01DX001 (ip), vehicle: saline
  T/C: 32 % of control
endpoint: median tumor weight change, dose: 1200.0 mg/kg/injection, schedule: Q01DX001 (ip), vehicle: saline
  T/C: 45 % of control

## O=NN(CCCl)C(=O)NC1CCCCC1
endpoint: mean tumor weight (est.), dose: 25.0 mg/kg/injection, schedule: Q07DX003 (ip), vehicle: saline + alcohol
  T/C: 88 % of control
endpoint: mean tumor weight (est.), dose: 50.0 mg/kg/injection, schedule: Q07DX003 (ip), vehicle: saline + alcohol
  T/C: 28 % of control
endpoint: mean tumor weight, dose: 6.25 mg/kg/injection, schedule: Q01DX009 (ip), vehicle: saline
  T/C: 78 % of control
endpoint: mean tumor weight, dose: 12.5 mg/kg/injection, schedule: Q01DX009 (ip), vehicle: saline
  T/C: 75 % of control
endpoint: mean tumor weight, dose: 12.5 mg/kg/injection, schedule: Q07DX006 (ip), vehicle: saline + alcohol
  T/C: 74 % of control
endpoint: mean tumor weight, dose: 25.0 mg/kg/injection, schedule: Q01DX009 (ip), vehicle: saline
  T/C: 28 % of control
endpoint: mean tumor weight, dose: 25.0 mg/kg/injection, schedule: Q07DX006 (ip), vehicle: saline + alcohol
  T/C: 44 % of control
endpoint: mean tumor weight, dose: 25.0 mg/kg/injection, schedule: Q07DX006 (ip), vehicle: saline
  T/C: 61 % of control
endpoint: mean tumor weight, dose: 50.0 mg/kg/injection, schedule: Q07DX006 (ip), vehicle: saline + alcohol
  T/C: 11 % of control
endpoint: mean tumor weight, dose: 50.0 mg/kg/injection, schedule: Q07DX006 (ip), vehicle: saline
  T/C: 220 % of control
endpoint: median tumor weight (est.), dose: 8.0 mg/kg/injection, schedule: Q07DX005 (ip), vehicle: Klucel (hydroxypropylcellulose) (HPC)
  T/C: 99 % of control
endpoint: median tumor weight (est.), dose: 16.0 mg/kg/injection, schedule: Q07DX005 (ip), vehicle: Klucel (hydroxypropylcellulose) (HPC)
  T/C: 30 % of control
endpoint: median tumor weight (est.), dose: 32.0 mg/kg/injection, schedule: Q07DX005 (ip), vehicle: Klucel (hydroxypropylcellulose) (HPC)
  T/C: 29 % of control
endpoint: median tumor weight change, dose: 4.0 mg/kg/injection, schedule: Q01DX001 (ip), vehicle: Klucel (hydroxypropylcellulose) (HPC)
  T/C: 66 % of control
endpoint: median tumor weight change, dose: 8.0 mg/kg/injection, schedule: Q01DX001 (ip), vehicle: Klucel (hydroxypropylcellulose) (HPC)
  T/C: 73 % of control
endpoint: median tumor weight change, dose: 15.0 mg/kg/injection, schedule: Q01DX001 (ip), vehicle: Klucel (hydroxypropylcellulose) (HPC)
  T/C: 91 % of control
endpoint: median tumor weight change, dose: 16.0 mg/kg/injection, schedule: Q01DX001 (ip), vehicle: Klucel (hydroxypropylcellulose) (HPC)
  T/C: 55 % of control
endpoint: median tumor weight change, dose: 30.0 mg/kg/injection, schedule: Q01DX001 (ip), vehicle: Klucel (hydroxypropylcellulose) (HPC)
  T/C: 34 % of control
endpoint: median tumor weight change, dose: 32.0 mg/kg/injection, schedule: Q01DX001 (ip), vehicle: Klucel (hydroxypropylcellulose) (HPC)
  T/C: 40 % of control
endpoint: median tumor weight change, dose: 60.0 mg/kg/injection, schedule: Q01DX001 (ip), vehicle: Klucel (hydroxypropylcellulose) (HPC)
  T/C: -23 % of control
endpoint: median tumor weight change, dose: 80.0 mg/kg/injection, schedule: Q01DX001 (ip), vehicle: Klucel (hydroxypropylcellulose) (HPC)
  T/C: 17 % of control

## CCc1c(CC(=O)O)c2cc(C)ccc2n1Cc1ccc(Cl)cc1
[9]
  T/C: 89 % of control
[10]
  T/C: 101 % of control

## Brc1c(NC2=NCCN2)ccc2nccnc12
endpoint: median tumor weight change, dose: 15.6 mg/kg/injection, schedule: Q01DX001 (ip), vehicle: saline
  T/C: 52 % of control
endpoint: median tumor weight change, dose: 31.25 mg/kg/injection, schedule: Q01DX001 (ip), vehicle: saline
  T/C: 77 % of control
endpoint: median tumor weight change, dose: 62.5 mg/kg/injection, schedule: Q01DX001 (ip), vehicle: saline
  T/C: 81 % of control
endpoint: median tumor weight change, dose: 125.0 mg/kg/injection, schedule: Q01DX001 (ip), vehicle: saline
  T/C: 92 % of control
endpoint: median tumor weight change, dose: 250.0 mg/kg/injection, schedule: Q01DX001 (ip), vehicle: saline
  T/C: 53 % of control

## NC(CNC(=O)CBr)C(=O)O (centres undefined)
endpoint: median tumor weight change, dose: 62.5 mg/kg/injection, schedule: Q01DX001 (ip), vehicle: water
  T/C: 95 % of control
endpoint: median tumor weight change, dose: 125.0 mg/kg/injection, schedule: Q01DX001 (ip), vehicle: water
  T/C: 77 % of control

## C=C(C)C(=NC(C)(C)C)Nc1ccccc1
[3]
  T/C: 92 % of control
[1]
  T/C: 60 % of control
[2]
  T/C: 96 % of control

## CCN(CC)c1ccc2cc(-c3nc4ccccc4n3C)c(=O)oc2c1
[6]
  T/C: 62 % of control and 84 % of control
[7]
  T/C: 79 % of control
[8]
  T/C: 35 % of control
endpoint: median tumor weight (est.), dose: 200.0 mg/kg/injection, schedule: Q07DX005 (ip), vehicle: Klucel (hydroxypropylcellulose) (HPC)
  T/C: 24 % of control
[9]
  T/C: 92 % of control
[10]
  T/C: 80 % of control
endpoint: median tumor weight change, dose: 500.0 mg/kg/injection, schedule: Q01DX001 (ip), vehicle: Klucel (hydroxypropylcellulose) (HPC)
  T/C: 37 % of control

## CSc1cc(=O)n2c3ccccc3c3ccnc1c32
endpoint: median tumor weight (est.), dose: 2.5 mg/kg/injection, schedule: Q07DX005 (ip), vehicle: saline with Tween-80
  T/C: 77 % of control
endpoint: median tumor weight (est.), dose: 5.0 mg/kg/injection, schedule: Q07DX005 (ip), vehicle: saline with Tween-80
  T/C: 74 % of control
endpoint: median tumor weight (est.), dose: 10.0 mg/kg/injection, schedule: Q07DX005 (ip), vehicle: saline with Tween-80
  T/C: 74 % of control
endpoint: median tumor weight (est.), dose: 20.0 mg/kg/injection, schedule: Q07DX005 (ip), vehicle: saline with Tween-80
  T/C: 65 % of control
endpoint: median tumor weight (est.), dose: 40.0 mg/kg/injection, schedule: Q07DX005 (ip), vehicle: saline with Tween-80
  T/C: 119 % of control
endpoint: median tumor weight (est.), dose: 80.0 mg/kg/injection, schedule: Q07DX005 (ip), vehicle: saline with Tween-80
  T/C: 59 % of control
